Source: patent US6177592A, “Compounds” (priority 1997, dated 2001)

Columns and labels:
[1] = Blood sugar, insulin and lipid in KK-Ay mice; type: in vivo, mouse (KK-A^y)
Protocol: KK-A^y Mice (male; four weeks age) were purchased from Clea Japan and, after breeding at our end until ten weeks age, GM was orally administered for 21 days and its influence on sugar, insulin and lipid in blood was investigated. Doses of GM were 30, 100 and 300 mg/kg.
Incidentally, the animals were grouped into four (each group consisting of ten animals) and the four groups were administered with physiological saline solution (5 ml/kg) or 30, 100 or 300 mg/5 ml/kg of GM. Each test substance was orally administered once daily for 21 days and, on the final day of administration, the animals were anesthetized with ether after four hours from the administration of the test substance and blood was collected from artery of lower abdomen. Insulin in serum was measured by an enzyme-immunoassay (commercially available kit: Glazym Insulin-EIATEST,manufactured by Wako Pure Chemicals). Sugar, triglycerides and free fatty acids in serum were measured using an automatic analyzer (type 7070, manufactured by Hitachi) by a hexonase-G6PDH method, a GPO.cndot.DAOS method and an ACS.cndot.ACOD method, respectively. Total cholesterol in serum was measured using an automatic analyzer (type 7070, manufactured by Hitachi) by a cholesterol-oxidase, DAOS method.

[2] = test system: CEM-3B cells (CEM-SS cells infected with HIV-1IIIB); experiment: Survival rate of HIV-1IIIB-infected CEM-SS cells (CEM-3B); type: cell-based; conditions: for survival rate of cells: one day
Protocol: GM (0, 4, 8 or 16 μM) was added to 2×10^5 cell/ml of CEM-SS cells (ATCC CCL-119) and to CEM-SS cells infected with HIV-1IIIB (wherein not less than 90% of the CEM-SS cells were infected with the HIV-1IIIB; hereinafter, referred to as CEM-3B) incubation was conducted for one day, viable cell numbers and dead cell numbers were counted and survival cell rate was calculated.

topoisomerase I = biological target: T1, topoisomerase I (Homo sapiens, UniProt P11387); experiment: Topoisomerase I inhibition; type: biochemical; conditions: 1 mM GM
T1 construct: pBR322 supercoil relaxation assay
Protocol: (2) Activity of GM for inhibiting the topoisomerase I was measured by the same method as in Example 17-(1) except that topoisomerase I [manufacturedby TopoGEN, 0.01 unit/y 1] was used instead of topoisomerase II; and 100 mM Tris-HCl (pH 7.9), 10 mM EDTA, 1 mM spermidine and 50% glycerol were used as a buffer with a ten-fold diluted concentration. Incidentally, as a sample, GM was added to make the final concentration 1 mM.

RAW264.7 cells = experiment: Inhibition of LPS-caused cell damage in RAW264.7; type: cell-based, mouse; conditions: RAW 264.7
Protocol: (§1) Inhibition activity of GM to NO production and to cell damage was measured as follows using mouse macrophage cell strain RAW264.7 cells (ATCC TIB 71) and LPS.
(§2) Dulbecco-modified Eagle's medium (manufactured by Life Technologies Oriental; 11054-020) containing 2 mM of L-glutamine (manufactured by Life Technologies Oriental; 25030-149) containing no Phenol Red containing 5 ml of 10% fetal calf serum (manufactured by Gibco) containing 1.5×10^6 cells of RAW 264.7 was incubated in a six-well tissue culture plate in the presence of 5% carbon dioxide gas at 37° C. for 12 hours, 50μl of 50μg/ml LPS (manufactured by Sigma; L-2012) was added, then each 50 μl of 250 )i M Mn or 100 μH GM was added to each well, incubation was further continued for additional 12 hours and, after that, NO2^- produced by oxidation of NO in the medium and amount of viable cell numbers were measured. Incidentally, a sect-Lon where no LPS was added and a section where no GM was added were prepared as controls.

antigen-specific IgE = experiment: Antigen-specific IgE production (48-hour rat PCA); type: in vivo, rat (Wistar); conditions: for IgE Titer: three days, control 64
Protocol: Yale rats of Wistar strain of five weeks age (one group consisting of five rats) (Nippon SLC) were sensitized by an intraperitoneal injection of 100 μl of 0.01% solution of egg white albumin (Sigma) in an aqueous physiological saline solution and 100 μl of Alum (trade name: Imject Alum; Pierce) and, after 14 days, blood was collected from abdominal artery.
The collected blood was centrifuged (at 2000 rpm for five minutes), plasma was separated and the amount of antigen-specific IgE was measured by a 48-hour rat passive cutaneous anaphylaxis (PCA) reaction.
Thus, serum was diluted with a physiological saline solution in a successively doubling manner ranging from 1/4 to 1/64 and each 0.1 ml thereof was subcutaneously injected to hair-clipped back of male rats of Wistar strain of seven weeks age. After 48 hours from the subcutaneous injection, 1 ml of a mixture of 0.05% egg white albumin and 0.5% Evans Blue (manufactured by Nacalai Tesque) was injected from tail vein. After 30 minutes from the injection from the tail vein, rats were subjected to decapitation and to exanguinated death, blue spots appeared on the back were observed, the spots with a diameter of 5 mm or more were judged to be positive and the highest dilution was adopted as an IgE titer.
In the GM-administered groups, 3 mg/kg or 30 mg/kg of GM was intraperitoneally administered once daily for three days from the antigen-sensitized day while, in the control group, distilled water was intraperitoneally administered by the same manner.

NO production = experiment: Inhibition of LPS-induced NO production in RAW264.7; type: cell-based, mouse; conditions: RAW 264.7
Protocol: as §1
as §2, with “controls. […]” for “controls.”

tumor necrosis factor-α = experiment: TNF-α in serum of LPS endotoxin-shock mice; type: in vivo, mouse (CDF1); conditions: for TNF in serum (Mean ± SE): n=5, control 2.32 ± 0.15
Protocol: (1) LPS (lipopolysaccharide manufactured by Sigma) was intraperitoneally injected (10 μg/mouse) to female CDF1 mice of eight weeks age (purchased from Nippon SLC at seven weeks age with bodyweight of 20 g followed by subjecting a preliminary breeding for one week at our end) and endotoxin-shock models were prepared. GM was orally administered at the dose of 100 and 1000 mg/kg at thirty minutes before administration of LPS. After one hour from the administration of LPS, blood was collected from the mice, serum was separated and amount of the tumor necrosis factor-α in the serum was measured by a commercially available ELISA kit (manufactured by Endogen).

[3] = 30, 100, 300 mg/kg oral, 21 days

T1 sequence (P11387 whole entry): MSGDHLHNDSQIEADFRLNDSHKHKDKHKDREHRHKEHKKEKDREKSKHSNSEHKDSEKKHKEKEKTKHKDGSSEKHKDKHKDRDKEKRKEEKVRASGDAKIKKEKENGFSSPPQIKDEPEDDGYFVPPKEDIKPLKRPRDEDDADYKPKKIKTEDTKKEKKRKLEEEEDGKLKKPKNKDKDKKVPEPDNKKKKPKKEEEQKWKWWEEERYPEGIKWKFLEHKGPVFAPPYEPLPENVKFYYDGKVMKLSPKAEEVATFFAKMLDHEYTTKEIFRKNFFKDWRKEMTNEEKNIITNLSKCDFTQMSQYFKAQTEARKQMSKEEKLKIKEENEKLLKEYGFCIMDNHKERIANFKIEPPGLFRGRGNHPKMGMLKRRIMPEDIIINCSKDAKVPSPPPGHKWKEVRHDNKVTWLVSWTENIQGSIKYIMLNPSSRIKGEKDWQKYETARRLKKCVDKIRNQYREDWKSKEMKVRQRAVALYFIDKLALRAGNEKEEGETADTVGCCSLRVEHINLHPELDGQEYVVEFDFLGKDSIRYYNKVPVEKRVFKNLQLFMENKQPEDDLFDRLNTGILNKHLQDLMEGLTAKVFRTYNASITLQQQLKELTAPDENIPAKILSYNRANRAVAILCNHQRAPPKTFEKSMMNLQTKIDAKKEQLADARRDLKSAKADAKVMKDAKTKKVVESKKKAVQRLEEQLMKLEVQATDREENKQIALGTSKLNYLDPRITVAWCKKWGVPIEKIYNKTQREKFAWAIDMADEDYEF

Compound	triglycerides in serum [1, 3]	blood sugar [1, 3]	free fatty acids in serum [1, 3]	insulin in serum [1, 3]	total cholesterol in serum [1, 3]	effect of lowering blood sugar, insulin and lipid ([1]; Example 13, summary)	survival rate of cells ([2]; 16 μM, compared with CEM-SS)	survival rate of cells ([2]; 4 or 8 μM)	selective cytocidal effect to HIV-infected cells, antiviral action to HIV ([2]; Example 15)	inhibition of topoisomerase I (topoisomerase I)	inhibition of cell damage caused by LPS (RAW264.7 cells)	IgE Titer (antigen-specific IgE; 3 mg/kg/day i.p.)	IgE Titer (antigen-specific IgE; 30 mg/kg/day i.p.)	inhibiting activity to IgE production (in words) (antigen-specific IgE; rat, in vivo)	inhibition of NO production (NO production)	TNF in serum (Mean ± SE) (tumor necrosis factor-α; 100 mg/kg oral) [ng/mL]	inhibition of production of tumor necrosis factor (in words) (tumor necrosis factor-α; 1000 mg/kg oral)	TNF in serum (Mean ± SE) (tumor necrosis factor-α; 1000 mg/kg oral) [ng/mL]
N[C@@H](CSC1C=C(O)C(=O)C1)C(=O)O (stereo partly drawn) [CM]	decreased																	
N[C@@H](CCC(=O)N[C@@H](CSC1C=C(O)C(=O)C1)C(=O)NCC(=O)O)C(=O)O (stereo partly drawn) [GM, 2-hydroxy-4-glutathion-S-yl-2-cyclopenten-1-one]		decreased in each of the groups administered with GM	decreased	decreased in each of the groups administered with GM	de creased	effect of lowering blood sugar, insulin and lipid	decreased more significantly	the survival rate significantly decreased depending upon the concentration	selective cytocidal effect to HIV-infected cells	topoisomerase I was inhibited by 1 mM GM	inhibited the cell damage in RAW 264.7 cells caused by LPS	32	8	inhibited by administration of GM in a dose-dependent manner	inhibited the NO production induced by LPS	2.22 ± 0.26	significantly inhibited	1.16 ± 0.26
